US9855268B2, “Triazolo[4,5-d]pyrimidine derivatives” (Merck Patent GmbH, priority 2013, dated 2018)

How the values were obtained:
GCN2 [1] = biological target: T1, GCN2 (Homo sapiens, UniProt Q9P2K8); assay: GCN2 enzyme assay (TR-FRET Lanthascreen, GFP-eIF2alpha phosphorylation); assay type: biochemical; conditions: 10 μM ATP, 80 nM GFP-eIF2a, 30 nM GCN2
Summary of the method: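 Kinase reaction with 10 μM ATP and 80 nM GFP-labelled eIF2alpha substrate at room temperature, stopped with EDTA. Phospho-eIF2alpha detected by TR-FRET between antibody and GFP-substrate, excitation at 340 nm.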
Target sequence in this assay (Q9P2K8 whole entry, species assumed): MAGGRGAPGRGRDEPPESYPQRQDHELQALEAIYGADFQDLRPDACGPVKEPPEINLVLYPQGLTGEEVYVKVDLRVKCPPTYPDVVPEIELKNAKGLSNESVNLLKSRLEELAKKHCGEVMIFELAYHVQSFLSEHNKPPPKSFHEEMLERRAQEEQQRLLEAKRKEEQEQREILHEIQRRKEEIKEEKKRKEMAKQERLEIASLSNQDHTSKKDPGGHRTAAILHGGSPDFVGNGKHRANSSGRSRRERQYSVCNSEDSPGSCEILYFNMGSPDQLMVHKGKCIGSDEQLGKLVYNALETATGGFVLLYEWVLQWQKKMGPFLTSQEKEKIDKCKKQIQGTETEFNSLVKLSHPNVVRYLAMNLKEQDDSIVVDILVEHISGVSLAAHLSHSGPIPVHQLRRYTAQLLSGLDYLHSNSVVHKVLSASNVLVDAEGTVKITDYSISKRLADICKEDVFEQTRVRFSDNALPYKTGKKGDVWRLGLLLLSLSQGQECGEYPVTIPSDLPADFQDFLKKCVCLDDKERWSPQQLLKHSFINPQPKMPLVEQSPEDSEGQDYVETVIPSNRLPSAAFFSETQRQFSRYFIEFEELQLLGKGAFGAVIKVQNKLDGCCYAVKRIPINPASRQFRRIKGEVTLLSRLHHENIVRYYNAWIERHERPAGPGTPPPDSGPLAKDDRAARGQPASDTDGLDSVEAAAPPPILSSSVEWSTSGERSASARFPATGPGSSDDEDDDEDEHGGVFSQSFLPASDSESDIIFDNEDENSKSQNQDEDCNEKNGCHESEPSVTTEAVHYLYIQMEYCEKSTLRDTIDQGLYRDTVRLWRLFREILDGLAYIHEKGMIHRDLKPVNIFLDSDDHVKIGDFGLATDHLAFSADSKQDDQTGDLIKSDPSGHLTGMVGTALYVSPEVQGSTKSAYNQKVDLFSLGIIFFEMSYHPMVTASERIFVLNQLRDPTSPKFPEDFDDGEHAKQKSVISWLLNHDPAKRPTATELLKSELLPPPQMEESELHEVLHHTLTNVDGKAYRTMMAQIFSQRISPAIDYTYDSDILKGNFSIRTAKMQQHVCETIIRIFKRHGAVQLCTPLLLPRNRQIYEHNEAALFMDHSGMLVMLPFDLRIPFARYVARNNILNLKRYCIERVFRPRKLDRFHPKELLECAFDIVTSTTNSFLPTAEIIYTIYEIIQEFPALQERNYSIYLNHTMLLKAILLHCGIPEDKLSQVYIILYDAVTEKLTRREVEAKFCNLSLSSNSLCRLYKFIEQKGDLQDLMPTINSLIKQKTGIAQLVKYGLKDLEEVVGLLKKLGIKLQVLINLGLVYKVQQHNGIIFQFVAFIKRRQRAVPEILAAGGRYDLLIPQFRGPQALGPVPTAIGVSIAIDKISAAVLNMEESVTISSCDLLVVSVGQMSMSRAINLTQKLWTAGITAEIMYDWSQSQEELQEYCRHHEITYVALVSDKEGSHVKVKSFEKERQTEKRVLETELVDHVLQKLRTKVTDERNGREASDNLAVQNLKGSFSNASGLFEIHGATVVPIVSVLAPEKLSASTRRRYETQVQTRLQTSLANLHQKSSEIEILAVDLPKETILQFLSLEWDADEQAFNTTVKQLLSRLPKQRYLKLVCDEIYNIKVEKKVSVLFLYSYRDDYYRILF

GCN2 [2] = biological target: T1, GCN2; assay: Cellular assay of GCN2 activity (phospho-eIF2alpha immunocytochemistry after tryptophanol); assay type: cell-based; parameters: endogenous in cells; host or cells: U2OS; conditions: Human U2OS cells, 2 h compound, 600 μM tryptophanol 30 min
Method: Cellular Assay for the Determination of Compound Activities
Human U2OS cells (2000 cells/well) are seeded into 384-well plates and incubated for 20 hours.
The next day, the cells are treated with the test compounds and incubated for 2 hours. Then, tryptophanol, at a final concentration of 600 μM, is added to the cells and those are incubated for 30 minutes.
The analysis of cellular GCN2 activities is done by immunocytochemistry.
Briefly, cells are fixated on the well surfaces by formaldehyde and permeabilised with Triton X-100.
The analysis and quantification of phosphorylated GCN2 is done by scanning the plates in the Acumen Explorer system (TTPLabtech). The obtained data are normalised against the untreated control wells (DMSO only) and expressed as % effect values. The determination of IC50 values is done by using the Graph Pad Prism software.
Target sequence in this assay (Q9P2K8 whole entry): as the sequence (Q9P2K8 whole entry, species assumed) above

GSK3α(h) = GSK3α(h) (Homo sapiens, UniProt P49840); assay: GSK3α radiometric kinase assay (33P-ATP, phospho GS2 peptide); assay type: biochemical; conditions: read-out: IC50 GSK3α (enzyme assay)
Method: GSK3α(h) is incubated with 8 mM MOPS pH 7,0, 0,2 mM EDTA, 20 μM
[…](p)EDEEE (phosphor GS2 peptide), 10 mM Mg-acetate and [gamma-33P-ATP](specific activity approx. 500 cpm/Pmol, concentration as required). The reaction is initiated by the addition of the MgATP. After incubation for 40 minutes at the room temperature, the Reaction is stopped by the addition of 3% phosphoric acid solution. 10 μL of reaction is then spotted onto a P30 filtermat and washed three times for 5 minutes in 50 mM phosphoric acid and once in methanol prior to drying and scintillation counting.

GSK3α(h), sequence (P49840 whole entry): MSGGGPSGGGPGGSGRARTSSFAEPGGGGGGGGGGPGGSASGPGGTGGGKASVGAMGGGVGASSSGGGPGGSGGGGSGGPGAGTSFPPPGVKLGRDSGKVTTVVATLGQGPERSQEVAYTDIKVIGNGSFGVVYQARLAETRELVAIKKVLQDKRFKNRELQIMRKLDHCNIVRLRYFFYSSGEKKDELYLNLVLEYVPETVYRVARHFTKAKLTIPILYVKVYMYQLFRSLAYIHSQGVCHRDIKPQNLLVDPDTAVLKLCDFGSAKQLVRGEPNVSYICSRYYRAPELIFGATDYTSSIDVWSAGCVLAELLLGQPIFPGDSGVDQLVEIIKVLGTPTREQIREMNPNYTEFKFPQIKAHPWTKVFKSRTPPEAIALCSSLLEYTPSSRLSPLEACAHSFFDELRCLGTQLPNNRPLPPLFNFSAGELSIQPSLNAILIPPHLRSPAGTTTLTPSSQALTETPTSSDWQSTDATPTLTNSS

## N[C@H]1CC[C@H](Nc2ncc3nnn(-c4ccc(N5CC[C@@H](O)C5)cc4)c3n2)CC1 [A70, (R)-1-{4-[5-((trans)-4-amino-cyclohexylamino)-[1,2,3]triazolo[4,5-d]pyrimidin-3-yl]-phenyl}-pyrrolidin-3-ol]
GCN2 [1]
  IC50: < 1 µM
GCN2 [2]
  IC50: 5 to 10 µM

## COCC(COC)Oc1ccc(-n2nnc3cnc(N[C@@H]4CC[C@@H](C(N)=O)C4)nc32)cc1 [A167, (1R,3R)-3-{3-[4-(2-methoxy-1-methoxymethyl-ethoxy)-phenyl]-3H-[1,2,3]triazolo[4,5-d]pyrimidin-5-ylamino}-cyclopentanecarboxylic acid amide]
GCN2 [1]
  IC50: < 1 µM
GCN2 [2]
  IC50: 1 to 5 µM

## Cn1cc2ccc(-n3nnc4cnc(N[C@@H]5CC[C@@H](C(N)=O)C5)nc43)cc2n1 [A185, (1R,3R)-3-[3-(2-methyl-2H-indazol-6-yl)-3H-[1,2,3]triazolo[4,5-d]pyrimidin-5-ylamino]-cyclopentanecarboxylic acid amide]
GCN2 [1]
  IC50: < 1 µM
GCN2 [2]
  IC50: 5 to 10 µM

## COC(=O)CCOc1ccc(-n2nnc3cnc(N[C@@H]4CC[C@@H](C(N)=O)C4)nc32)cc1 [A292, 3-{4-[5-((1R,3R)-3-carbamoyl-cyclopentylamino)-[1,2,3]triazolo[4,5-d]pyrimidin-3-yl]-phenoxy}-propionic acid methyl ester]
GCN2 [1]
  IC50: < 1 µM
GCN2 [2]
  IC50: 1 to 5 µM

## Cc1ccc2cc(-n3nnc4cnc(N[C@@H]5CC[C@@H](C(=O)NCCC(C)(C)O)C5)nc43)ccc2n1 [A253, (1R,3R)-3-[3-(2-methyl-quinolin-6-yl)-3H-[1,2,3]triazolo[4,5-d]pyrimidin-5-ylamino]-cyclopentanecarboxylic acid (3-hydroxy-3-methyl-butyl)-amide]
GCN2 [1]
  IC50: < 1 µM
GCN2 [2]
  IC50: < 1 µM

## Cn1cc(CNc2ncc3nnn(-c4ccc5ncccc5c4)c3n2)cn1 [B1, (1-methyl-1H-pyrazol-4-ylmethyl)-(3-quinolin-6-yl-3H-[1,2,3]triazolo[4,5-d]pyrimidin-5-yl)-amine]
GCN2 [1]
  IC50: < 1 µM
GCN2 [2]
  IC50: 5 to 10 µM

## NC(=O)[C@@H]1CC[C@@H](Nc2ncc3nnn(-c4ccc(O)cc4)c3n2)C1 [A276, (1R,3R)-3-[3-(4-hydroxy-phenyl)-3H-[1,2,3]triazolo[4,5-d]pyrimidin-5-ylamino]-cyclopentanecarboxylic acid amide]
GCN2 [1]
  IC50: < 1 µM
GCN2 [2]
  IC50: 5 to 10 µM

## N[C@H]1CC[C@H](Nc2ncc3nnn(-c4ccc(N5CCOCC5)cc4)c3n2)CC1 [A64, N-[3-(4-morpholin-4-yl-phenyl)-3H-[1,2,3]triazolo[4,5-d]pyrimidin-5-yl]-cyclohexane-1,4-diamine]
GCN2 [1]
  IC50: < 1 µM
GCN2 [2]
  IC50: 1 to 5 µM

## Cn1cc(-c2ccc(-n3nnc4cnc(N[C@H]5CC[C@H](O)C5)nc43)cc2)cn1 (relative stereo) [A51, trans-3-{3-[4-(1-methyl-1H-pyrazol-4-yl)-phenyl]-3H-[1,2,3]triazolo[4,5-d]pyrimidin-5-ylamino}-cyclopentanol]
GCN2 [1]
  IC50: < 1 µM
GCN2 [2]
  IC50: 1 to 5 µM

## NC(=O)[C@@H]1CC[C@@H](Nc2ncc3nnn(-c4ccc(OC5CCOCC5)cc4)c3n2)C1 [A168, (1R,3R)-3-{3-[4-(tetrahydro-pyran-4-yloxy)-phenyl]-3H-[1,2,3]triazolo[4,5-d]-pyrimidin-5-ylamino}-cyclopentanecarboxylic acid amide]
GCN2 [1]
  IC50: < 1 µM
GCN2 [2]
  IC50: 1 to 5 µM

## O=c1cccnn1CCn1cc(-c2ccc(-n3nnc4cnc(N[C@@H]5CC[C@@H](O)C5)nc43)cc2)cn1 [A236, 2-[2-(4-{4-[5-((1R,3R)-3-hydroxy-cyclopentylamino)-[1,2,3]triazolo[4,5-d]-pyrimidin-3-yl]-phenyl}-pyrazol-1-yl)-ethyl]-2H-pyridazin-3-one]
GCN2 [1]
  IC50: < 1 µM
GCN2 [2]
  IC50: 5 to 10 µM

## Cc1ccc2cc(-n3nnc4cnc(N[C@@H]5CC[C@H](C(N)=O)C5)nc43)ccc2n1 [A191, (1S,3R)-3-[3-(2-methyl-quinolin-6-yl)-3H-[1,2,3]triazolo[4,5-d]pyrimidin-5-ylamino]-cyclopentanecarboxylic acid amide]
GCN2 [1]
  IC50: < 1 µM
GCN2 [2]
  IC50: 1 to 5 µM

## OCCn1cc(-c2ccc(-n3nnc4cnc(N[C@H]5CC[C@H](O)C5)nc43)cc2)cn1 (relative stereo) [A57, trans-3-(3-{4-[1-(2-hydroxy-ethyl)-1H-pyrazol-4-yl]-phenyl}-3H-[1,2,3]triazolo[4,5-d]pyrimidin-5-ylamino)-cyclopentanol]
GCN2 [1]
  IC50: < 1 µM
GCN2 [2]
  IC50: 1 to 5 µM

## CCOc1ccc(-n2nnc3cnc(N[C@@H]4CC[C@@H](C(=O)N(C)CC(C)(C)O)C4)nc32)cc1 [A251, (1R,3R)-3-[3-(4-ethoxy-phenyl)-3H-[1,2,3]triazolo[4,5-d]pyrimidin-5-ylamino]-cyclopentanecarboxylic acid (2-hydroxy-2-methyl-propyl)-methyl-amide]
GCN2 [1]
  IC50: < 1 µM
GCN2 [2]
  IC50: 5 to 10 µM

## O[C@@H]1CC[C@@H](Nc2ncc3nnn(-c4ccc(OC[C@H](O)C(F)(F)F)cc4)c3n2)C1 (stereo in doubt) [A205, (trans)-3-{3-[4-((S)-3,3,3-trifluoro-2-hydroxy-propoxy)-phenyl]-3H-[1,2,3]triazolo[4,5-d]pyrimidin-5-ylamino}-cyclopentanol]
GCN2 [1]
  IC50: < 1 µM
GCN2 [2]
  IC50: 5 to 10 µM

## COc1ccc(-n2nnc3cnc(NC4CCN(C(=O)CCN(C)C)CC4)nc32)cc1 [A49, 3-dimethylamino-1-{4-[3-(4-methoxy-phenyl)-3H-[1,2,3]triazolo[4,5-d]pyrimidin-5-ylamino]-piperidin-1-yl}-propan-1-one]
GCN2 [1]
  IC50: < 1 µM
GCN2 [2]
  IC50: 5 to 10 µM

## NC(=O)[C@@H]1CC[C@@H](Nc2ncc3nnn(-c4ccc5nsnc5c4)c3n2)C1 [A174, (1R,3R)-3-(3-benzo[1,2,5]thiadiazol-5-yl-3H-[1,2,3]triazolo[4,5-d]pyrimidin-5-ylamino)-cyclopentanecarboxylic acid amide]
GCN2 [1]
  IC50: < 1 µM
GSK3α(h)
  IC50: < 1 µM

## Cn1cc2cc(-n3nnc4cnc(N[C@@H]5CC[C@@H](C(N)=O)C5)nc43)ccc2n1 [A186, (1R,3R)-3-[3-(2-methyl-2H-indazol-5-yl)-3H-[1,2,3]triazolo[4,5-d]pyrimidin-5-ylamino]-cyclopentanecarboxylic acid amide]
GCN2 [1]
  IC50: < 1 µM
GCN2 [2]
  IC50: 1 to 5 µM

## COc1ccc(-n2nnc3cnc(N[C@@H]4CC[C@@H](C(N)=O)C4)nc32)cn1 [A173, (1R,3R)-3-[3-(6-methoxy-pyridin-3-yl)-3H-[1,2,3]triazolo[4,5-d]pyrimidin-5-ylamino]-cyclopentanecarboxylic acid amide]
GCN2 [1]
  IC50: < 1 µM
GSK3α(h)
  IC50: < 1 µM

## N[C@H]1CC[C@H](Nc2ncc3nnn(-c4ccc(-c5cnn(CCO)c5)cc4)c3n2)CC1 [A256, 2-(4-{4-[5-(trans-4-amino-cyclohexylamino)-[1,2,3]triazolo[4,5-d]pyrimidin-3-yl]-phenyl}-pyrazol-1-yl)-ethanol]
GCN2 [1]
  IC50: < 1 µM
GCN2 [2]
  IC50: 5 to 10 µM

## NC(=O)[C@@H]1CC[C@@H](Nc2ncc3nnn(-c4ccc(-c5cnn(CCc6nnn[nH]6)c5)cc4)c3n2)C1 [A265, (1R,3R)-3-[3-(4-{1-[2-(1H-tetrazol-5-yl)-ethyl]-1H-pyrazol-4-yl}-phenyl)-3H-[1,2,3]triazolo[4,5-d]pyrimidin-5-ylamino]-cyclopentanecarboxylic acid amide]
GCN2 [1]
  IC50: < 1 µM
GSK3α(h)
  IC50: < 1 µM

## O[C@@H]1CC[C@@H](Nc2ncc3nnn(-c4ccc5nsnc5c4)c3n2)C1 (relative stereo) [A200, (trans)-3-(3-benzo[1,2,5]thiadiazol-5-yl-3H-[1,2,3]triazolo[4,5-d]pyrimidin-5-ylamino)-cyclopentanol]
GCN2 [1]
  IC50: < 1 µM
GSK3α(h)
  IC50: < 1 µM

## COc1ccc(-n2nnc3cnc(N[C@@H]4CCN(S(N)(=O)=O)C4)nc32)cc1 [A270, (R)-3-[3-(4-methoxy-phenyl)-3H-[1,2,3]triazolo[4,5-d]pyrimidin-5-ylamino]-pyrrolidine-1-sulfonic acid amide]
GCN2 [1]
  IC50: < 1 µM
GSK3α(h)
  IC50: < 1 µM

## COc1ccc(-n2nnc3cnc(NC(C)CC(N)=O)nc32)cc1 (stereo not shown) [A144, 3-[3-(4-methoxy-phenyl)-3H-[1,2,3]triazolo[4,5-d]pyrimidin-5-ylamino]-butyramide]
GCN2 [1]
  IC50: < 1 µM
GSK3α(h)
  IC50: < 1 µM

## N[C@H]1CC[C@H](Nc2ncc3nnn(-c4ccc(N5CC[C@H](O)C5)cc4)c3n2)CC1 [A128, (S)-1-{4-[5-(4-amino-cyclohexylamino)-[1,2,3]triazolo[4,5-d]pyrimidin-3-yl]-phenyl}-pyrrolidin-3-ol]
GCN2 [1]
  IC50: < 1 µM
GCN2 [2]
  IC50: 5 to 10 µM

## COc1ccc(-n2nnc3cnc(N[C@@H]4CC[C@@H](C(N)=O)C4)nc32)nc1 [A175, (1R,3R)-3-[3-(5-methoxy-pyridin-2-yl)-3H-[1,2,3]triazolo[4,5-d]pyrimidin-5-ylamino]-cyclopentanecarboxylic acid amide]
GCN2 [1]
  IC50: < 1 µM
GSK3α(h)
  IC50: < 1 µM
